Experimental data published in patent US20140234227A1, “FOAM FORMULATIONS” (OTIC PHARMA LTD, priority 2011, published 2014).
Counter-ions that a name gives are not always drawn.

What was measured:
Assay in all cases: Antibiotics-Microbial Assay - Zone of Growth Inhibition
Format in all cases: cell-based
[1] = test system: Pseudomonas aeruginosa (ATCC No. 9027); settings: LB-agar, 24 hrs at 37° C.
Description: (§1) In this assay the diameter (halo) of bacterial growth inhibition around filters soaked with a test item was measured and compared to a standard solution of antibiotic. For this end, sterile Microbiological cotton swabs were soaked with cultures of E. Coli (ATCC No. 8739), S. aureus (ATCC No. 6538) or of Pseudomonas aeruginosa (ATCC No. 9027) and evenly spread on top of LB-agar plates. Filters soaked with the tested formulation were placed on top of the plates and the plates were further incubated for 24 hrs. The diameter (halo) of growth inhibition around each filter was measured after 24 hrs of incubation at 37° C. A solution that contained the same concentration of Ciprofloxacin Hydrochloride (0.35%) as in the formulation tested was used as a control.

E. Coli (ATCC No. 8739) = settings: LB-agar, 24 hrs at 37° C.
Description: as §1

[2] = test system: S. aureus (ATCC No. 6538); settings: Staph. Aureus, LB-agar, 24 hrs at 37° C.
Description: as §1

## O=C(O)c1cn(C2CC2)c2cc(N3CCNCC3)c(F)cc2c1=O [Ciprofloxacin HCl solution (0.35%), monohydrochloride monohydrate salt of 1-cyclopropyl-6-fluoro-1,4-dihydro-4-oxo-7-(1-piperazinyl)-3-quinolinecarboxylic acid]
[1]
  diameter of growth inhibition: 4.85 cm
E. Coli (ATCC No. 8739)
  diameter of growth inhibition: 3.6 cm
[2]
  diameter of growth inhibition: 4.7 cm
